Results reported in patent publication US9113629B2, “4-amino-6-(4-substituted-phenyl)-picolinates and 6-amino-2-(4-substituted-phenyl)-pyrimidine-4-carboxylates and their use as herbicides” (DOW AGROSCIENCES LLC, priority 2013, dated 2015).

How the values were obtained:
Assay in all cases: Post-emergent Test III, herbicidal activity in wheat and barley
Format in all cases: in vivo
[1] = system: HORSS: barley, including spring and winter (Hordeum vulgare); conditions: 21 days after application; for pest or weed control at 35 g/ha / pest or weed control at 70 g/ha: Hordeum vulgare, post-emergence, 504 h, read-out: Visual Gorowth Reduction (%) 21 days After Application HORSS; for pest or weed control at 35 g/ha: 35 g ai/ha; for pest or weed control at 70 g/ha: 70 g ai/ha; for GR20 HORSS: probit analysis, dose for 20 percent growth reduction (crop)
Outline: (§1)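 Plants at the second to third true-leaf stage, grown in a greenhouse at about 18/17 °C with a 14 h photoperiod, were sprayed post-emergence at 187 L/ha with the high rate and ½× to 1/16× serial dilutions in an acetone/DMSO/crop-oil/surfactant carrier. Injury was rated visually at 21 d on a 0–100% scale, and GR20–GR90 were derived by probit analysis.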

[2] = system: KCHSC: kochia (Kochia scoparia); conditions: 21 days after application; for pest or weed control at 35 g/ha / pest or weed control at 70 g/ha: Bassia scoparia, post-emergence, 504 h, read-out: Visual Gorowth Reduction (%) 21 days After Application KCHSC; for pest or weed control at 35 g/ha: 35 g ai/ha; for pest or weed control at 70 g/ha: 70 g ai/ha; for GR50 KCHSC / GR80 KCHSC: probit analysis; for GR50 KCHSC: dose for 50 percent growth reduction; for GR80 KCHSC: dose for 80 percent growth reduction
Outline: as §1

[3] = system: MATSS: scented mayweed (Matricaria chamomilla), pineappleweed (Matricaria matricarioides); conditions: 21 days after application; for pest or weed control at 35 g/ha / pest or weed control at 70 g/ha: Matricaria chamomilla, post-emergence, 504 h, read-out: Visual Gorowth Reduction (%) 21 days After Application MATSS; for pest or weed control at 35 g/ha: 35 g ai/ha; for pest or weed control at 70 g/ha: 70 g ai/ha; for GR50 MATSS / GR80 MATSS: probit analysis; for GR50 MATSS: dose for 50 percent growth reduction; for GR80 MATSS: dose for 80 percent growth reduction
Outline: as §1

[4] = system: SASKR: Russian thistle (Salsola iberica); conditions: 21 days after application; for pest or weed control at 35 g/ha / pest or weed control at 70 g/ha: Salsola tragus, post-emergence, 504 h, read-out: Visual Gorowth Reduction (%) 21 days After Application SASKR; for pest or weed control at 35 g/ha: 35 g ai/ha; for pest or weed control at 70 g/ha: 70 g ai/ha; for GR50 SASKR / GR80 SASKR: probit analysis; for GR50 SASKR: dose for 50 percent growth reduction; for GR80 SASKR: dose for 80 percent growth reduction
Outline: as §1

[5] = system: TRZSS: wheat, including spring and winter (Triticum aestivum); conditions: 21 days after application; for pest or weed control at 35 g/ha / pest or weed control at 70 g/ha: Triticum aestivum, post-emergence, 504 h, read-out: Visual Gorowth Reduction (%) 21 days After Application TRZSS; for pest or weed control at 35 g/ha: 35 g ai/ha; for pest or weed control at 70 g/ha: 70 g ai/ha; for GR20 TRZSS: probit analysis, dose for 20 percent growth reduction (crop)
Outline: as §1

[6] = system: VERPE: bird's-eye speedwell (veronica persica); conditions: 21 days after application; for pest or weed control at 35 g/ha / pest or weed control at 70 g/ha: Veronica persica, post-emergence, 504 h, read-out: Visual Gorowth Reduction (%) 21 days After Application VERPE; for pest or weed control at 35 g/ha: 35 g ai/ha; for pest or weed control at 70 g/ha: 70 g ai/ha; for GR50 VERPE / GR80 VERPE: probit analysis; for GR50 VERPE: dose for 50 percent growth reduction; for GR80 VERPE: dose for 80 percent growth reduction
Outline: as §1

[7] = system: VIOSS: wild pansy (Viola tricolor), field violet (Viola arvensis); conditions: 21 days after application; for pest or weed control at 35 g/ha / pest or weed control at 70 g/ha: Viola tricolor, post-emergence, 504 h, read-out: Visual Gorowth Reduction (%) 21 days After Application VIOSS; for pest or weed control at 35 g/ha: 35 g ai/ha; for pest or weed control at 70 g/ha: 70 g ai/ha; for GR50 VIOSS / GR80 VIOSS: probit analysis; for GR50 VIOSS: dose for 50 percent growth reduction; for GR80 VIOSS: dose for 80 percent growth reduction
Outline: as §1

COC(=O)c1nc(-c2ccc(I)c(F)c2F)c(F)c(N)c1Cl [Compound 99]
pest or weed control at 35 g/ha [1]: 85 to 94%
pest or weed control at 70 g/ha [1]: 95 to 100%
GR20 HORSS [1]: 1 g ai/ha
pest or weed control at 35 g/ha [2]: 75 to 84%
pest or weed control at 70 g/ha [2]: 85 to 94%
GR50 KCHSC [2]: 9 g ai/ha
GR80 KCHSC [2]: 27 g ai/ha
pest or weed control at 35 g/ha [3]: 30 to 44%
pest or weed control at 70 g/ha [3]: 45 to 59%
GR50 MATSS [3]: 63 g ai/ha
GR80 MATSS [3]: >140 g ai/ha
pest or weed control at 35 g/ha [4]: 75 to 84%
pest or weed control at 70 g/ha [4]: 75 to 84%
GR50 SASKR [4]: 10 g ai/ha
GR80 SASKR [4]: 48 g ai/ha
pest or weed control at 35 g/ha [5]: 85 to 94%
pest or weed control at 70 g/ha [5]: 85 to 94%
GR20 TRZSS [5]: 1 g ai/ha
pest or weed control at 35 g/ha [6]: 95 to 100%
pest or weed control at 70 g/ha [6]: 95 to 100%
GR50 VERPE [6]: 8 g ai/ha
GR80 VERPE [6]: 17 g ai/ha
pest or weed control at 35 g/ha [7]: 95 to 100%
pest or weed control at 70 g/ha [7]: 95 to 100%
GR50 VIOSS [7]: 9 g ai/ha
GR80 VIOSS [7]: 19 g ai/ha

COC(=O)c1nc(-c2ccc(Br)cc2F)c(F)c(N)c1Cl [Compound 52]
pest or weed control at 35 g/ha [1]: 85 to 94%
pest or weed control at 70 g/ha [1]: 95 to 100%
GR20 HORSS [1]: 1 g ai/ha
pest or weed control at 35 g/ha [2]: 75 to 84%
pest or weed control at 70 g/ha [2]: 85 to 94%
GR50 KCHSC [2]: 5 g ai/ha
GR80 KCHSC [2]: 38 g ai/ha
pest or weed control at 35 g/ha [3]: 0 to 29%
pest or weed control at 70 g/ha [3]: 60 to 74%
GR50 MATSS [3]: 62 g ai/ha
GR80 MATSS [3]: 91 g ai/ha
pest or weed control at 35 g/ha [4]: 60 to 74%
pest or weed control at 70 g/ha [4]: 75 to 84%
GR50 SASKR [4]: 4 g ai/ha
GR80 SASKR [4]: 84 g ai/ha
pest or weed control at 35 g/ha [5]: 85 to 94%
pest or weed control at 70 g/ha [5]: 85 to 94%
GR20 TRZSS [5]: 1 g ai/ha
pest or weed control at 35 g/ha [6]: 75 to 84%
pest or weed control at 70 g/ha [6]: 95 to 100%
GR50 VERPE [6]: 20 g ai/ha
GR80 VERPE [6]: 37 g ai/ha
pest or weed control at 35 g/ha [7]: 95 to 100%
pest or weed control at 70 g/ha [7]: 95 to 100%
GR50 VIOSS [7]: 12 g ai/ha
GR80 VIOSS [7]: 19 g ai/ha
